# Article PMC9421654, “Discovery of Substituted Di(pyridin-2-yl)-1,2,4-thiadiazol-5-amines as Novel Macrofilaricidal Compounds for the Treatment of Human Filarial Infections” (Journal of Medicinal Chemistry, 2022)
# Several values for one entry are separate records, joined by “and”; a condition that tells them apart may be missing. Equal values may be shown once. Read-outs that look alike come from different tables or passages of the source.
# How the values were obtained:
# [1] = tested on: O. gutturosa adult male worms; test: O. gutturosa adult worm ex vivo assay, MTT/formazan viability; type: cell-based, Onchocerca gutturosa; conditions: Onchocerca gutturosa, supplement; SD in brackets in the PDF table; read-out: O. gutturosa EC50 (uM) MTT viability inhibition
# Method in brief: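 Adult male worms from naturally infected Gambian cattle were kept individually in MEM with 10% newborn calf serum at 37 °C, 5% CO2; four worms per concentration. Motility was scored 0-10 every 24 h to 120 h as a percentage of maximum, with ≥50% reduction versus untreated counted active. Afterwards, MTT (0.5 mg/mL, 30 min) formazan was read at 490 nm.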
# O. volvulus L5 larvae [2] = test: O. volvulus L5 ex vivo assay, MTT viability; type: cell-based, Onchocerca volvulus; conditions: Day 21, 1 uM
# Procedure: This culturing medium was then added in transwell 24-well plates containing human umbilical vein endothelial cell (HUVEC) monolayers, containing the L4 larvae. A week prior to conducting an assay, the cultured O. volvulus larvae (L5) were transferred into a Petri dish containing fresh medium. […] After the transfer of O. volvulus L5 to the plates, the test compounds were dissolved in DMSO, added to each well, and incubated at 37 °C in a 5% CO2. The media containing freshly prepared compounds were partially replaced every 2–3 days for 14 days. After 14 days, the media were completely replaced. The untreated control contains the media described above with a final concentration of 0.05% DMSO. […] The motility was measured visually by two operators. […] Following washout and incubation during 1 h in PBS under 5% CO2, worms were observed under an inverted microscope. Worms were considered dead if no staining or less than 50% within the worm was observed. Otherwise, if worms stained blue or more than 50% stained, then they are considered alive. All test treatments were performed in duplicates. Significance was determined using a t test.
# [3] = tested on: O. gutturosa adult male worms; test: O. gutturosa adult worm ex vivo assay, motility; type: cell-based, Onchocerca gutturosa; conditions: Onchocerca gutturosa
# Method in brief: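 Adult male O. gutturosa from naturally infected cattle were cultured in supplemented MEM at 37 °C, 5% CO2, with four worms per concentration in serial 1-in-4 dilutions. Motility (0–10 scale) was scored every 24 h to 120 h. EC50 (geomean, n=2) for motility reduction came from 4PL fits, and viability was checked by MTT at 120 h.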
# [4] = LogD measurement (octanol-water); type: physicochemical
# Method in brief: (§1)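 Human and rat liver microsomes (0.3 mg/mL) with 1 mM NADPH and 3µM substrate, 30 minutes at 37 °C in pH 7.4 phosphate/MgCl2, triplicate; LC-MS/MS percentage remaining. LogD: octanol/aqueous buffer (pH 7.4, 2.2, 6.8, 5), 24 h shaking at room temperature. Kinetic solubility: 200 µM, 2% DMSO, 24 h, filtered.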
# O. volvulus L5 larvae [5] = test: O. volvulus L5 ex vivo assay, motility; type: cell-based; conditions: Onchocerca volvulus, 504 h, read-out: O. volvulus L5 % inhibition of motility
# Procedure: O. volvulus larvae (L4) were prepared using cryopreserved O. volvulus L3 cultured in a medium containing 1:1 NCTC-109 and IMDM (Iscove’s modified Dulbecco’s medium) supplemented with Glutamax (1×) and 2× Antibiotic-Antimycotic (Life Technologies). This culturing medium was then added in transwell 24-well plates containing human umbilical vein endothelial cell (HUVEC) monolayers, containing the L4 larvae. A week prior to conducting an assay, the cultured O. volvulus larvae (L5) were transferred into a Petri dish containing fresh medium. Aliquots of 8–10 worms were retrieved from the Petri dish and placed inside new transwells over newly seeded HUVEC monolayers in the medium described above. After the transfer of O. volvulus L5 to the plates, the test compounds were dissolved in DMSO, added to each well, and incubated at 37 °C in a 5% CO2. The media containing freshly prepared compounds were partially replaced every 2–3 days for 14 days. After 14 days, the media were completely replaced. The untreated control contains the media described above with a final concentration of 0.05% DMSO. The motility was measured every 2–3 days with the following scale: 100% motility, constant coiling movement; 75% motility, slower coiling; 50% motility, slow and intermittent movement; 25% motility, very slow movement or twitching; and 0% motility, no movement. The motility was measured visually by two operators. On day 28, the viability of O. volvulus L5 was measured by MTT. Following washout and incubation during 1 h in PBS under 5% CO2, worms were observed under an inverted microscope. Worms were considered dead if no staining or less than 50% within the worm was observed. Otherwise, if worms stained blue or more than 50% stained, then they are considered alive. All test treatments were performed in duplicates. Significance was determined using a t test.
# [6] = Liver S9 metabolic stability assay, human; type: in vitro ADME; conditions: 3 μM, 60 min
# Method in brief: (§2)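 Rat and human liver S9 (0.75 and 1.2 mg/ml) with 1 mM NADPH, 0.5 mM UDPGA, 2.5 mM GSH, 0.05 mg/ml PAPS, 3µM substrate, 60 min at 37 °C in Tris/MgCl2 pH 7.4. Mouse microsomes 0.3 mg/mL, 1 mM NADPH, 3µM, 30 min, phosphate pH 7.4. LC-MS/MS, % remaining, triplicate.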
# [7] = Liver S9 metabolic stability assay, rat; type: in vitro ADME; conditions: 3 μM, 60 min
# Method in brief: as §2
# [8] = target: T1, hERG potassium channels (KCNH2, expressed in HEK293 cells) (Homo sapiens, UniProt Q12809); test: hERG inhibition; type: cell-based; conditions: supplement
# T1 construct: expressed in transfected cells
# THLE-2 cells = test: THLE-2 cytotoxicity assay (ATP); conditions: Homo sapiens, THLE-2, read-out: THLE IC50
# Procedure: In vitro cytotoxicity of select compounds was tested in a “normal” proliferating transformed human liver epithelial (THLE-2) cell line.[35] Compounds were incubated in THLE-2 cells for 24 and 72 h, and adenosine triphosphate (ATP) levels were used as an indicator of cell viability.
# THLE-2 Cytotoxicity Assay: THLE-2 cells (ATCC, catalog #CRL-2706) were plated in LHC-8 Media (Invitrogen, catalog #12679015) supplemented with fetal bovine serum (GE, catalog #SH30088.03), 70 ng/mL phosphoethanolamine (Sigma, catalog #P0503), 5 ng/mL EGF (Sigma, catalog #E9644), 1X penicillin/streptomycin (Gibco, catalog #15140148), and 1X glutamine (Invitrogen, catalog #25030024) in 384-well clear-bottom, black walled plates at a density of 3750 cells/well (15μL/well). After plating, cells were incubated overnight at 37°C in an incubator with 5% CO2 and 90% humidity. Compounds were first serially diluted in dimethyl sulfoxide then diluted in LHC-8 media growth media to 2X concentration. Cells were dosed with 15μL of each dose for final concentrations between 0.01 – 300 μM. Cells were incubated with compounds for 24 or 72 hours. Cytotoxicity was determined with Cell Titer Glo Luminescent ATP Assay (Promega, catalog #G7573) according to the manufacturer’s instructions. Tamoxifen (Sigma, catalog #BC9353476) was used as a positive control. levels at each dose were normalized to that of cells dosed with dimethyl sulfoxide vehicle alone and IC50 values were calculated from non-linear regression fits of dose-response curves plotted
# [9] = Kinetic solubility measurement; type: physicochemical
# Method in brief: as §1
# P-gp (MDR1) = target: T2, P-gp (MDR1) (Homo sapiens, UniProt P08183); test: MDCK/MDR1 permeability and efflux; type: in vitro ADME; conditions: dog
# T2 construct: expressed in transfected cells; host or cells: MDCK (Madin Darby canine kidney) cells
# From the text: Our approach was to target compounds with efflux ratio (ER) >2.5 in the MDCK cell line transfected with MDR1 (multidrug resistance-1 transfected Madin Darby canine kidney cell line). […] Our goal was to impart structural elements designed to impart Pgp recognition.
# [10] = read-out: O. gutturosa EC50 μM (SD), ex vivo adult worm motility reduction, SD in brackets
# [11] = read-out: O. gutturosa EC50 (uM) motility inhibition, supplement, SD in brackets in the PDF table
# [12] = supplement, read-out: measured logD
# T1 sequence (Q12809 whole entry): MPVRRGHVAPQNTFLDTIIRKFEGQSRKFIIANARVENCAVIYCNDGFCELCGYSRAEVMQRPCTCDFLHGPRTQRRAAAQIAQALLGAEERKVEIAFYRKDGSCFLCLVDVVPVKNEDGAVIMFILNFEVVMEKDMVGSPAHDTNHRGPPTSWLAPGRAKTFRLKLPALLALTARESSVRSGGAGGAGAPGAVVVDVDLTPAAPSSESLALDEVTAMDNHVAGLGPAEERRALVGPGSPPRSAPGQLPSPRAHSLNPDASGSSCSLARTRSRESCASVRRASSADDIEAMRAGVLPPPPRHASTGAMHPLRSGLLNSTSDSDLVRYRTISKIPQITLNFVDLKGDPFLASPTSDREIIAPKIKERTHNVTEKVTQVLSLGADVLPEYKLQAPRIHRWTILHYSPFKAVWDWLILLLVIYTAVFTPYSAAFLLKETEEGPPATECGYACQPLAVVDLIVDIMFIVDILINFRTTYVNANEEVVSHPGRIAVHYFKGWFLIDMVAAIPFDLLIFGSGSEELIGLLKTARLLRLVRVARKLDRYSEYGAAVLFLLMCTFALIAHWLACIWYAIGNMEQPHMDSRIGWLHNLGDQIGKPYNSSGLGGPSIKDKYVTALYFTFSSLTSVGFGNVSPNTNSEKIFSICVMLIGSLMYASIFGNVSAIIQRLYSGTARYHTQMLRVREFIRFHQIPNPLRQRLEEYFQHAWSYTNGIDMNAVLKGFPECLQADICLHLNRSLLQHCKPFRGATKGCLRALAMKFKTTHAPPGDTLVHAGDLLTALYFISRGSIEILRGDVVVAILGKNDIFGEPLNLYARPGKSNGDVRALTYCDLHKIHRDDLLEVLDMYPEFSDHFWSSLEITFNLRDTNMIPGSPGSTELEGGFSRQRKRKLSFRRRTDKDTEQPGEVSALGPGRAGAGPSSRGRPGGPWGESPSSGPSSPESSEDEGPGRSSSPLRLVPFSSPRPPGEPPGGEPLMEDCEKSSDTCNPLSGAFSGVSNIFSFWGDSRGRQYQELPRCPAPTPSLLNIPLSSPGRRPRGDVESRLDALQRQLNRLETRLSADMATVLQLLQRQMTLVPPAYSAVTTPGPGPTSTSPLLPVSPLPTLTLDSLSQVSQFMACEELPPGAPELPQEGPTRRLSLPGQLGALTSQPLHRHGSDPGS
# T2 sequence (P08183 whole entry): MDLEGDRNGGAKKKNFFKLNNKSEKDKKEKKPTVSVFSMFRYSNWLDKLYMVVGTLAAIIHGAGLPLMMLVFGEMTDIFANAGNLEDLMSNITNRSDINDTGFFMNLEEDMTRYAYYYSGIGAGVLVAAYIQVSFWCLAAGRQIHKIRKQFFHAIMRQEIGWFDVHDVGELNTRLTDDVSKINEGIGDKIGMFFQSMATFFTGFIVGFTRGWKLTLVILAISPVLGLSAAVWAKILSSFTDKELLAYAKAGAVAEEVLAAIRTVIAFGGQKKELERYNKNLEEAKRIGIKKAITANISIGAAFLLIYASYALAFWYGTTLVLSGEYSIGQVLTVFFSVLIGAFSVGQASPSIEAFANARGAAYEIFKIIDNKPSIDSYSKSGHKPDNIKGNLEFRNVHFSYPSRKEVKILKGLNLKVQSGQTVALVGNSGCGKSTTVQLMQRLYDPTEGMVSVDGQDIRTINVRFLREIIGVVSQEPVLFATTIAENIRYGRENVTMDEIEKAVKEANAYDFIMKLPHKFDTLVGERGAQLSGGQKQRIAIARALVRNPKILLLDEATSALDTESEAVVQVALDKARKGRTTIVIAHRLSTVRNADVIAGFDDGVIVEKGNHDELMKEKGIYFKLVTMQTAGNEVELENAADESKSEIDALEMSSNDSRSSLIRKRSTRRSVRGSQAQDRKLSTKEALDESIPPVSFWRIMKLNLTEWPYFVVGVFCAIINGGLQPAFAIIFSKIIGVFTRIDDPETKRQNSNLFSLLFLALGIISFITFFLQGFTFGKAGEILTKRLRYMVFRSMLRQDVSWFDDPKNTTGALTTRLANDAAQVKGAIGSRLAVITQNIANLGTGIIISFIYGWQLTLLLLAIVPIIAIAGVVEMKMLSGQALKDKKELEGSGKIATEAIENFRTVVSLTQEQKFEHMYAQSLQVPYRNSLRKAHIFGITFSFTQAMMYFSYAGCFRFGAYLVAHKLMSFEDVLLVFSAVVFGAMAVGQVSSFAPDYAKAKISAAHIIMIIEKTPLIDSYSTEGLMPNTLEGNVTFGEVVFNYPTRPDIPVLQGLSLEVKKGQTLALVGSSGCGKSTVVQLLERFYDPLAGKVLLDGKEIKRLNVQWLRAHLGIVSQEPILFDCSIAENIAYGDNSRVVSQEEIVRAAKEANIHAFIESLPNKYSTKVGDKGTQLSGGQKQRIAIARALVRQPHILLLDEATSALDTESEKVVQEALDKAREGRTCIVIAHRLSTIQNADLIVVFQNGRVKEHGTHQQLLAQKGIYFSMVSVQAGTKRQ
Structure (SMILES),EC50 [1] [µM],O. volvulus L5 % inhibition of viability (O. volvulus L5 larvae [2]) [%],"EC50 [3, 10] [µM]","EC50 [3, 11] [µM]","EC50 ([3]; read-out: O. gutturosa EC50, adult worm motility, bound stated) [µM]","logD at 24 h ([4]; pH 7.4, read-out: logD)","logD at 24 h [4, 12]",inhibition at 1 µM (O. volvulus L5 larvae [5]) [%],Human S9 metabolic stability [6] [% remaining],Rat S9 metabolic stability [7] [% remaining],IC50 [8] [nM],IC50 (THLE-2 cells) [nM],solubility kinetic at 24 h ([9]; 10 mM DMSO stock solutions),solubility kinetic at 24 h ([9]; supplement) [µM],Papp A→B (P-gp (MDR1)) [×10⁻⁶ cm/s]
"CC(C)c1cccnc1Nc1nc(-c2ccc(OC3CC3)cn2)ns1 [Compound 23, 3-(5-Cyclopropoxypyridin-2-yl)-N-(3-isopropylpyridin-2-yl)-1,2,4-thiadiazol-5-amine]",0.012,100,0.04,0.038,< 0.1,2.5,2.5,100,39,78,,,,,
CC(=O)N(C)c1cccnc1Nc1nc(-c2cc(C(F)(F)F)c(OC(C)C)cn2)ns1 [Compound 48],1.05,,3.71,,,3.5,3.5,,,,26000,8300,10.8 µM,10.8,6.9
"CC(C)Oc1cnc(-c2nsc(Nc3ncccc3N(C)C(=O)C3CC3)n2)cc1C(F)(F)F [Compound 49, N-(2-((3-(5-Isopropoxy-4-(trifluoromethyl)pyridin-2-yl)-1,2,4-thiadiazol-5-yl)amino)pyridine-3-yl)-N-methylcyclopropanecarboxamide]",3.7,,1.11,,,3.63,3.63,,,,> 30000,18300,2.67 µM,,8.8
CC(=O)N(C)c1cnc(Nc2nc(-c3ccc(OC(C)C)cn3)ns2)c(C)c1 [Compound 51],0.46,,0.49,0.488,,2.2,2.2,,,,,,15 µM,,30.3
"CC(C)Oc1cnc(-c2nsc(Nc3ncccc3N3CCCC3=O)n2)cc1C(F)(F)F [Compound 52, 1-(2-((3-(5-Isopropoxy-4-(trifluoromethyl)pyridin-2-yl)-1,2,4-thiadiazol-5-yl)amino)pyridin-3-yl)pyrrolidin-2-one]",1.95,,1.73,,,2.7,2.7,,,,,,9.95 µM,,12.9
"CC(=O)N(C)c1cc(C(F)(F)F)cnc1Nc1nc(-c2ccc(OC(C)C)cn2)ns1 [Compound 54, N-(2-((3-(5-Isopropoxypyridin-2-yl)-1,2,4-thiadiazol-5-yl)amino)-5-(trifluoromethyl)pyridin-3-yl)-N-methylacetamide]",0.15,,0.14,0.139,,3.13,3.13,,,,> 30000,6100,13.1 µM,,9.9
"CC(C)Oc1cccnc1-c1nsc(Nc2ncc(C(F)(F)F)cc2C(=O)N(C)C)n1 [Compound 58, 2-[[3-(3-Isopropoxy-2-pyridyl)-1,2,4-thiadiazol-5-yl]amino]-N,N-dimethyl-5-(trifluoromethyl)pyridine-3-carboxamide]",1.5,,0.62,0.621,,2.15,2.15,,,,,,130 µM,,11.2
"CC(C)Oc1ccc(-c2nsc(Nc3ncccc3C(=O)N(C)C)n2)nc1 [Compound 61, 2-((3-(5-Isopropoxypyridin-2-yl)-1,2,4-thiadiazol-5-yl)amino)-N,N-dimethylnicotinamide]",2.1,,0.36,0.357,,2.1,2.1,,,,> 30000,32500,101 µM and 100.70 µM,,4.9
